Legend:
EGFR = biological target: T1, EGFR (Homo sapiens, UniProt P00533); test: Biochemical EGFR Assay; parameters: concentration or dose not given beside the values
T1 construct: endogenous in cells; host or cells: A431 cells (lysate, captured with SUMO1 anti-EGFR antibody)
Outline: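 EGFR from A431 lysate was captured on anti-EGFR-coated wells and preincubated 30 min with compound (diluted 1:10 in TBS) at room temperature. After ATP/MnCl2 phosphorylation for 5 min, the reaction was stopped with EDTA. Phosphotyrosine was detected by ELISA (anti-phosphotyrosine, peroxidase conjugate, ABTS) at 410 nm.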

PDGF-R = PDGF-R Assay (cellular ELISA, U1242 cells); type: cell-based; parameters: concentration or dose not given beside the values
Outline: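 U1242 cells seeded in 0.5% serum, serum-starved, then exposed to compound for 2 hr at 37°C before 5–10 min ligand stimulation and lysis in HNTG. Lysate captured on receptor-antibody-coated plates; phosphotyrosine detected with polyclonal anti-pTyr, goat anti-rabbit IgG and ABTS/H2O2, A410 (ref 630 nm), versus untreated cells.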

T1 sequence (P00533 25-1210): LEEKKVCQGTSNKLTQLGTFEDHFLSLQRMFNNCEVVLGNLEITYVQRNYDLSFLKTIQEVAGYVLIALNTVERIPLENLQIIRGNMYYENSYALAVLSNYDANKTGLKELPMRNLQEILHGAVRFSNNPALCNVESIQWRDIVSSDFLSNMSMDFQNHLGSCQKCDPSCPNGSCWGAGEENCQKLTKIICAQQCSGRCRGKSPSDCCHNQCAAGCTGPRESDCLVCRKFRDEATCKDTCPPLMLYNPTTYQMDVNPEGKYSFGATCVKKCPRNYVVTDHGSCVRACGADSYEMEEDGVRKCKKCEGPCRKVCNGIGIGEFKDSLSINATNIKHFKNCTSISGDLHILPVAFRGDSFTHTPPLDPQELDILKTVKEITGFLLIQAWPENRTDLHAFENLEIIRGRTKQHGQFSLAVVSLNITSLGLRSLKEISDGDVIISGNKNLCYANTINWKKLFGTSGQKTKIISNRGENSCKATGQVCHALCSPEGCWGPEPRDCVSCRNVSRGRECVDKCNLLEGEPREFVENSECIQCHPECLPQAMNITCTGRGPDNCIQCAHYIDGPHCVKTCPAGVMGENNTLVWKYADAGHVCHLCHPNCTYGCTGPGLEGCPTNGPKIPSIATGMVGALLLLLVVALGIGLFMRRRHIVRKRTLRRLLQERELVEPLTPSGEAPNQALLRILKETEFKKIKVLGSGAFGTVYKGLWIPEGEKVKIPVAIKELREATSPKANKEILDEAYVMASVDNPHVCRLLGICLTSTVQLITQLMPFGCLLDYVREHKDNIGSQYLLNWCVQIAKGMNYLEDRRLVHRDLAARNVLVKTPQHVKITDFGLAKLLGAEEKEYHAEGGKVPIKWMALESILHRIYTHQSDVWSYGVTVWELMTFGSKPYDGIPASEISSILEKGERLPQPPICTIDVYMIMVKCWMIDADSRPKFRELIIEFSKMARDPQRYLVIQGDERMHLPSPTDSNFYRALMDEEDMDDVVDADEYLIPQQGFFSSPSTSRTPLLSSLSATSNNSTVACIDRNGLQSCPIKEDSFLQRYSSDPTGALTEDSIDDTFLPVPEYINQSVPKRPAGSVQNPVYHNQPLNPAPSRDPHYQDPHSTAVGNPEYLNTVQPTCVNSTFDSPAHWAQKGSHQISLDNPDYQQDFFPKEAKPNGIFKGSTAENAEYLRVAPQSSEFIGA

Row | SMILES | Biochem EGFR % Inhibition (P.167) (EGFR) [%] | PDGF Kinase % Inhibition (P.119) (PDGF-R) [%]
1 | Cc1c(Br)cc(Br)c2c1C(=Cc1ccc(O)cc1)C(=O)N2 [10719/H07] | −2.8 | 
2 | Cc1c(Br)cc(Br)c2c1C(=Cc1ccc(N(C)C)cc1)C(=O)N2 [10719/H08] | 2.9 | 
3 | Cc1c(Br)cc(Br)c2c1C(=Cc1ccc(F)cc1Cl)C(=O)N2 [10719/H09] | −33.5 | 
4 | Cc1c(Br)cc(Br)c2c1C(=Cc1cccc([N+](=O)[O-])c1)C(=O)N2 [10719/H10] | 14.6 | 
5 | Cc1c(Br)cc(Br)c2c1C(=Cc1ccc(F)cc1C(F)(F)F)C(=O)N2 [10719/H11] | −12.0 | 
6 | Cc1c(Br)cc(Br)c2c1C(=Cc1c(F)cc(F)cc1F)C(=O)N2 [10720/H02] | 17.0 | 
7 | COc1cc(O)ccc1C=C1C(=O)Nc2c(Br)cc(Br)c(C)c21 [10720/H03] | −13.9 | 
8 | N#Cc1ccccc1C=C1C(=O)Nc2ccc(CCCl)cc21 [10735/G07] | 4.6 | 12.6
9 | O=C1Nc2ccc(CCCl)cc2C1=Cc1c(F)cccc1F [10735/G08] | 1.6 | 9.8
10 | O=C1Nc2ccc(CCCl)cc2C1=Cc1cccc2ccccc12 [10735/G09] | 19.8 | 2.2
11 | O=C1Nc2ccc(CCCl)cc2C1=Cc1ccc(Cl)cc1Cl [10735/G10] | 4.5 | −8.8
12 | O=C1Nc2ccc(CCCl)cc2C1=Cc1ccc(-c2ccccc2)cc1 [10735/G11] | 2.9 | −5.3
13 | Cc1ccccc1C=C1C(=O)Nc2c(Br)cc(Br)c(C)c21 [10735/H02] | 3.6 | −4.7
14 | Cc1c(Br)cc(Br)c2c1C(=Cc1ccc(F)c(F)c1)C(=O)N2 [10735/H03] | −1.0 | 1.2
15 | Cc1c(Br)cc(Br)c2c1C(=Cc1cc(F)cc(F)c1)C(=O)N2 [10735/H04] | −9.3 | 1.2
16 | Cc1c(Br)cc(Br)c2c1C(=Cc1cccc(C(F)(F)F)c1)C(=O)N2 [10735/H05] | −0.3 | 9.1

Row | SMILES | Biochem EGFR % Inhibition (P.167) (EGFR) [%] | PDGF Kinase % Inhibition (P.119) (PDGF-R) [%]
17 | Cc1c(Br)cc(Br)c2c1C(=Cc1cc(C(F)(F)F)cc(C(F)(F)F)c1)C(=O)N2 [10735/H06] | −14.2 | 6.4
18 | Cc1c(Br)cc(Br)c2c1C(=Cc1ccccc1C#N)C(=O)N2 [10735/H07] | 3.8 | −0.9
19 | Cc1c(Br)cc(Br)c2c1C(=Cc1c(F)cccc1F)C(=O)N2 [10735/H08] | 6.8 | −2.6
20 | Cc1c(Br)cc(Br)c2c1C(=Cc1cccc3ccccc13)C(=O)N2 [10735/H09] | −10.7 | 6.4
21 | Cc1c(Br)cc(Br)c2c1C(=Cc1ccc(Cl)cc1Cl)C(=O)N2 [10735/H10] | −16.3 | −0.2
22 | Cc1c(Br)cc(Br)c2c1C(=Cc1ccc(-c3ccccc3)cc1)C(=O)N2 [10735/H11] | −4.2 | 1.9
23 | O=C1Nc2c(Br)cc(Br)cc2C1=Cc1ccc(Cl)cc1 [10736/A02] | 7.7 | 24.2
24 | O=C1Nc2c(Br)cc(Br)cc2C1=Cc1ccccc1C(F)(F)F [10736/A03] | 24.2 | 31.6
25 | Cc1cccc(C=C2C(=O)Nc3c(Br)cc(Br)cc32)c1 [10736/A04] | 14.1 | 13.2
26 | Cc1ccc(C=C2C(=O)Nc3c(Br)cc(Br)cc32)cc1 [10736/A05] | 80.1 | 8.4
27 | O=C1Nc2c(Br)cc(Br)cc2C1=Cc1cccc(Cl)c1 [10736/A06] | 34.4 | 32.1
28 | O=C1Nc2c(Br)cc(Br)cc2C1=Cc1cccc(F)c1 [10736/A07] | 30.2 | 8.4
29 | O=C1Nc2c(Br)cc(Br)cc2C1=Cc1ccccc1F [10736/A08] | 27.6 | 11.0
30 | CCc1ccc(C=C2C(=O)Nc3c(Br)cc(Br)cc32)cc1 [10736/A09] | 20.0 | −6.5
31 | COc1cccc(C=C2C(=O)Nc3c(Br)cc(Br)cc32)c1 [10736/A10] | −0.1 | 5.8
